Reference: PMC8161485 (ACS Central Science, 2021)
Entries after “also recorded” stand apart in the source; their conditions may differ.

Tested on: heme oxygenase 1 (HO-1)
Assay: Induction of heme oxygenase 1 in primary AML specimens
Format: cell-based, human
Details: compared to vehicle-only control

C=C1C(=O)O[C@H]2[C@H]1CC/C(C)=C/CC[C@@]1(C)O[C@@H]21 [PTL, parthenolide]
induction of heme oxygenase 1 (HO-1): Dose-dependent induction; also recorded: comparatively larger induction of HO-1 at lower doses
